{"source": "patent US6677157B1", "about": "“Method of diagnosis of prostate cancer” (Uropath Pty Ltd., A.C.N., priority 1998, dated 2004)", "system": "mixed lymphocyte reaction", "assay": "Effect of keratan sulphate on a mixed lymphocyte reaction", "format": "cell-based", "settings": "20 μg/ml", "protocol": "The function of keratan sulphate in prostate tissue is unknown. It is known, however, that GAG compounds are important in the prevention of autoimmune bonne diseases (forms of arthritis). In order to determine whether keratan sulphate may have an immune regulatory effect it was assessed by intorducing it into a mixed lymphocyte reaction. […] At markedly diluted lymphocyte ratios of >270:1 no effect was evident (see FIG. 2).", "data": [{"substance": "keratan sulphate", "values": [{"measurement": "reduction of mixed lymphocyte reaction", "setting": "lymphocyte ratios of 10, 30 and 90:1", "value": 50, "unit": "%"}, {"measurement": "effect on mixed lymphocyte reaction", "setting": "markedly diluted lymphocyte ratios of >270:1", "value": "no effect"}]}]}
